Laboratory results as given in ChEMBL document CHEMBL3885881, “DrugMatrix”.

Organism: Rattus norvegicus
Test: DrugMatrix - Regimen: Daily Repeat
Assay type: toxicity, organism-based, Sprague-Dawley
Design: regimen Daily Repeat, gender Male, age 6-8 weeks
Conditions: in vivo, po, route oral GAVAGE, vehicle .5 % CMC; for ABSOLUTE BASOPHIL / ABSOLUTE EOSINOPHIL / ABSOLUTE LYMPHOCYTE / ABSOLUTE MONOCYTE / ABSOLUTE SEGMENTED NEUTROPHIL / BASOPHIL / EOSINOPHIL / ERYTHROCYTE COUNT / HEMATOCRIT / HEMOGLOBIN / LEUKOCYTE COUNT / LYMPHOCYTE / MEAN CORPUSCULAR HEMOGLOBIN / MEAN CORPUSCULAR HEMOGLOBIN CONCENTRATION / MEAN CORPUSCULAR VOLUME / MONOCYTE / NEUTROPHIL / NUCLEATED RED BLOOD CELLS / PLATELET COUNT: tissue Blood; for ALANINE AMINOTRANSFERASE / ALBUMIN / ALKALINE PHOSPHATASE / ASPARTATE AMINOTRANSFERASE / BLOOD UREA NITROGEN / CARBON DIOXIDE / CHLORIDE / CHOLESTEROL / CREATINE PHOSPHOKINASE / CREATININE / GLUCOSE / LACTATE DEHYDROGENASE / LIPASE / PHOSPHORUS / POTASSIUM / SODIUM / TOTAL BILIRUBIN / TOTAL PROTEIN / URIC ACID: tissue Plasma
[1] = 0 mg/kg, 72 h, dose level Control, time 3 day
[2] = 0 mg/kg, 120 h, dose level Control, time 5 day
[3] = 100 mg/kg, 72 h, dose level Low, time 3 day

CO[C@H]1/C=C/O[C@@]2(C)Oc3c(C)c(O)c4c(c3C2=O)C2=NC3(CCN(CC(C)C)CC3)NC2=C(NC(=O)/C(C)=C\C=C\[C@H](C)[C@H](O)[C@@H](C)[C@@H](O)[C@@H](C)[C@H](OC(C)=O)[C@@H]1C)C4=O [RIFABUTIN]
ABSOLUTE BASOPHIL [1]: 0 CELLS/uL
ABSOLUTE EOSINOPHIL [1]: 0 CELLS/uL
ABSOLUTE LYMPHOCYTE [1]: 12269.67 CELLS/uL
ABSOLUTE MONOCYTE [1]: 160.33 CELLS/uL
ABSOLUTE SEGMENTED NEUTROPHIL [1]: 970 CELLS/uL
BASOPHIL [1]: 0%
EOSINOPHIL [1]: 0%
ERYTHROCYTE COUNT [1]: 5.76 x10E6/uL
HEMATOCRIT [1]: 36.57%
HEMOGLOBIN [1]: 14.22 G/DL
LEUKOCYTE COUNT [1]: 13.4 x10E3/uL
LYMPHOCYTE [1]: 91.67%
MEAN CORPUSCULAR HEMOGLOBIN [1]: 24.67 pg
MEAN CORPUSCULAR HEMOGLOBIN CONCENTRATION [1]: 38.85 G/DL
MEAN CORPUSCULAR VOLUME [1]: 63.52 fL
MONOCYTE [1]: 1.17%
NEUTROPHIL [1]: 7.17%
NUCLEATED RED BLOOD CELLS [1]: 0.33 /100WBC
PLATELET COUNT [1]: 1250.83 x10E3/uL
ALANINE AMINOTRANSFERASE [1]: 49.17 u/L
ALBUMIN [1]: 4.33 G/DL
ALKALINE PHOSPHATASE [1]: 378.5 u/L
ASPARTATE AMINOTRANSFERASE [1]: 82.17 u/L
BLOOD UREA NITROGEN [1]: 15 mg/dL
CARBON DIOXIDE [1]: 34.33 mmol/L
CHLORIDE [1]: 99.17 MEQ/L
CHOLESTEROL [1]: 71.17 mg/dL
CREATINE PHOSPHOKINASE [1]: 258.67 u/L
CREATININE [1]: 0.18 mg/dL
GLUCOSE [1]: 142.67 mg/dL
LACTATE DEHYDROGENASE [1]: 154.33 u/L
LIPASE [1]: 9 u/L
PHOSPHORUS [1]: 11.67 mg/dL
POTASSIUM [1]: 7.13 MEQ/L
SODIUM [1]: 142.22 MEQ/L
TOTAL BILIRUBIN [1]: 0.18 mg/dL
TOTAL PROTEIN [1]: 5.77 G/DL
URIC ACID [1]: 1.55 mg/dL
ABSOLUTE BASOPHIL [2]: 0 CELLS/uL
ABSOLUTE EOSINOPHIL [2]: 23.33 CELLS/uL
ABSOLUTE LYMPHOCYTE [2]: 14943.67 CELLS/uL
ABSOLUTE MONOCYTE [2]: 32 CELLS/uL
ABSOLUTE SEGMENTED NEUTROPHIL [2]: 1084.33 CELLS/uL
BASOPHIL [2]: 0%
EOSINOPHIL [2]: 0.17%
ERYTHROCYTE COUNT [2]: 5.71 x10E6/uL
HEMATOCRIT [2]: 35.28%
HEMOGLOBIN [2]: 14.27 G/DL
LEUKOCYTE COUNT [2]: 16.08 x10E3/uL
LYMPHOCYTE [2]: 93%
MEAN CORPUSCULAR HEMOGLOBIN [2]: 25.02 pg
MEAN CORPUSCULAR HEMOGLOBIN CONCENTRATION [2]: 40.43 G/DL
MEAN CORPUSCULAR VOLUME [2]: 61.82 fL
MONOCYTE [2]: 0.17%
NEUTROPHIL [2]: 6.67%
NUCLEATED RED BLOOD CELLS [2]: 0.33 /100WBC
PLATELET COUNT [2]: 1274 x10E3/uL
ALANINE AMINOTRANSFERASE [2]: 54.17 u/L
ALBUMIN [2]: 4.22 G/DL
ALKALINE PHOSPHATASE [2]: 373.17 u/L
ASPARTATE AMINOTRANSFERASE [2]: 81.83 u/L
BLOOD UREA NITROGEN [2]: 16.67 mg/dL
CARBON DIOXIDE [2]: 30.33 mmol/L
CHLORIDE [2]: 99 MEQ/L
CHOLESTEROL [2]: 71 mg/dL
CREATINE PHOSPHOKINASE [2]: 273.5 u/L
CREATININE [2]: 0.22 mg/dL
GLUCOSE [2]: 141.83 mg/dL
LACTATE DEHYDROGENASE [2]: 153.67 u/L
LIPASE [2]: 10.33 u/L
PHOSPHORUS [2]: 11.38 mg/dL
POTASSIUM [2]: 7.08 MEQ/L
SODIUM [2]: 142.75 MEQ/L
TOTAL BILIRUBIN [2]: 0.18 mg/dL
TOTAL PROTEIN [2]: 6.1 G/DL
URIC ACID [2]: 1.67 mg/dL
ABSOLUTE BASOPHIL [3]: 0 CELLS/uL
ABSOLUTE EOSINOPHIL [3]: 245.33 CELLS/uL
ABSOLUTE LYMPHOCYTE [3]: 18853.33 CELLS/uL
ABSOLUTE MONOCYTE [3]: 248 CELLS/uL
ABSOLUTE SEGMENTED NEUTROPHIL [3]: 1720 CELLS/uL
BASOPHIL [3]: 0%
EOSINOPHIL [3]: 1%
ERYTHROCYTE COUNT [3]: 5.43 x10E6/uL
HEMATOCRIT [3]: 36.1%
HEMOGLOBIN [3]: 14.33 G/DL
LEUKOCYTE COUNT [3]: 21.07 x10E3/uL
LYMPHOCYTE [3]: 89.33%
MEAN CORPUSCULAR HEMOGLOBIN [3]: 26.5 pg
MEAN CORPUSCULAR HEMOGLOBIN CONCENTRATION [3]: 39.7 G/DL
MEAN CORPUSCULAR VOLUME [3]: 66.67 fL
MONOCYTE [3]: 1.33%
NEUTROPHIL [3]: 8.33%
NUCLEATED RED BLOOD CELLS [3]: 0.67 /100WBC
PLATELET COUNT [3]: 1207.33 x10E3/uL
ALANINE AMINOTRANSFERASE [3]: 65.67 u/L
ALBUMIN [3]: 4.37 G/DL
ALKALINE PHOSPHATASE [3]: 375 u/L
ASPARTATE AMINOTRANSFERASE [3]: 96.33 u/L
BLOOD UREA NITROGEN [3]: 13 mg/dL
CARBON DIOXIDE [3]: 25.67 mmol/L
CHLORIDE [3]: 103 MEQ/L
CHOLESTEROL [3]: 84.33 mg/dL
CREATINE PHOSPHOKINASE [3]: 380 u/L
CREATININE [3]: 0.35 mg/dL
GLUCOSE [3]: 158 mg/dL
LACTATE DEHYDROGENASE [3]: 212.67 u/L
LIPASE [3]: 10.67 u/L
PHOSPHORUS [3]: 12.8 mg/dL
POTASSIUM [3]: 6.31 MEQ/L
SODIUM [3]: 145.97 MEQ/L
TOTAL BILIRUBIN [3]: 0.23 mg/dL
TOTAL PROTEIN [3]: 6.1 G/DL
URIC ACID [3]: 1.97 mg/dL
